According to patent EP1006112A1, “3-Hydroxy-2(1H)-pyridinone or 3-hydroxy-4(1H)-pyridinone derivatives useful as reactive oxygen species (ROS) scavengers” (Cerebrus Pharmaceuticals Limited, priority 1998, dated 2000):
Counter-ions that a name gives are not always drawn.

Key:
[1] = system: Lipid peroxidation in rat brain homogenates; assay: Lipid peroxidation assay (ascorbic acid-induced, TBA/MDA readout); assay type: biochemical; details: concentration required to inhibit lipid peroxidation by 50%; rat cortex preparation, 500-µM L-ascorbic acid, 37 °C, 30 min
Description: Lipid peroxidation in rat brain homogenates is a general procedure used to measure the antioxidant capacity of molecules in a biological environment (Das N.P. and Ratty A.K., Biochem. Med. Metab. Biol, 1987, 37, 256-264).
Rat cortex was homogenised in 20 vols. of ice cold 0.32-M sucrose and centrifuged at 1,000 g for 10 min. The pellet was discarded whilst the resulting supernatant was centrifuged at 15,000 g for 20 min at 4 °C to yield p2 pellets. The pellet was re-suspended in ice-cold 50.0-mM phosphate buffer and centrifuged at 30,000 g for 20 min at 4 °C. The pellet was re-suspended in 30 vols. of 50.0-mM phosphate buffer and used immediately in the assay.
Assays contained 500-µM L-ascorbic acid to induce lipid peroxidation, plus various concentrations of test compound, with the tissue preparation in a total volume of 500 µL. This was incubated at 37 °C for 30 min. Lipid peroxidation was measured by adding to the reaction mixture, 300 µL 40 % (w/v) trichloroacetic acid, 150 µL 5.0-M HCl and 300 µL 2 % (w/v) 2-thiobarbituric acid (TBA). […] The pink colour of the supernatant was assessed spectrophotometrically at a wavelength of 532 nm. The amount of malondialdehyde (MDA) in the samples was calculated using a standard curve prepared with malondialdehyde tetrabutylammonium salt (Das, N.P. and Ratty, A.K. Biochem. Med. Metab. Biol. (1987), 37, 256-264). […]

[2] = system: cerebellar granule cell (CGC) cultures; assay: Iodoacetate induced cell toxicity in culture (cell death, MTT-reductase activity); assay type: cell-based; details: protection of CGC after 30-µM IAA for 30 min (with 10-µM MK-801), 24 hour incubation with test compound
Description: After 6-8 days in culture, cerebellar granule cell (CGC) cultures in 96-well plates (250,000 cells per well) were prepared for hypoglycaemia. lodoacetate (IAA) was made up in a balanced salt solution (BSS) (NaCl, 154.0-mM; KCl, 5.6-mM; MgCl2, 1.0-mM; CaCl2, 2.5-mM; N-[2-hydroxyethyl]piperazine-N'-[2-ethanesulfonic acid] (HEPES), 10.0-mM; D-glucose, 5.6-mM; pH 7.4) and any neuroprotective agents were made up in pre-warmed tissue culture media and allowed to equilibrate in a controlled environment (5 % CO2, 95 % air). The assay was initiated by aspiration of the maintenance media, which was replaced by either BSS (control) or 30-µM IAA in BSS, both solutions containing 10-µM of the NMDA receptor antagonist MK-801. The exposure to IAA was for 30 min only at 37 °C, after which time the BSS was aspirated and replaced with fresh, pre-equilibriated maintenance media containing various concentrations of test compound. All conditions were performed at least in duplicate in each 96 well plate. The final volume for each well was always 200 µL. Following a 24 hour incubation, visual inspection of the cells was followed by quantification of neuronal cell death by measuring 3-[4,5-dimethylthiazol-2-yl]-2,5-diphenyltetrazolium bromide (MTT)-reductase activity as described previously (Malcolm et al., J. Neurochem. 1996, 66, 2350-2360).

Row | SMILES | IC50 [1] [µM] | EC50 [2] [µM]
1 | COc1ccc2[nH]cc(CCNC(=O)CCn3ccc(=O)c(O)c3C)c2c1 [Example 1, 3-(1,4-Dihydro-3-hydroxy-2-methyl-4-oxo-1-pyridinyl)-N-(2-(5-methoxy-3-indolyl)ethyl)propanamide mesylate] | 1.5 | 4.9
2 | COc1ccc2[nH]cc(CCn3ccc(=O)c(O)c3C)c2c1 [Example 2, 3-Hydroxy-1-(2-(5-methoxy-3-indolyl)ethyl)-2-methyl-4(1H)-pyridinone] | 2 | 11.9
